Consider 14 substances from patent US20240247080A1, “GLP1/GIP/NPY2 RECEPTOR TRIPLE AGONISTS” (Boehringer Ingelheim International GmbH, priority 2022, published 2024).

Like-named read-outs stand apart in the source and are kept apart here. Starred links: 1 amine or outer side, 2 acyl side, 3 side chain; linkers in the order of their positions; H or OH if unused. Positions of bridges follow the written chain, without caps; N, C: chain ends. Non-standard residues stand in square brackets, D forms with d. Groups on a side chain read outwards from the residue. Chains are numbered I, II in the order given. No end group written: not given here. *: point of attachment. C20 diacid = O=C(O)CCCCCCCCCCCCCCCCCCC(=O)*; C18 diacid = O=C(O)CCCCCCCCCCCCCCCCC(=O)*; γGlu = O=C(O)[C@H](CCC(=O)[*:2])N[*:1]; εLys = N[C@@H](CCCCN[*:1])C(=O)[*:2]; NMeR = CN[C@@H](CCCNC(=N)N)C(=O)O; NMeQ = CN[C@@H](CCC(N)=O)C(=O)O; AEEA = NCCOCCOCC(=O)O; Aib = CC(C)(N)C(=O)O; Ahx = NCCCCCC(=O)O

For one assay, the target named is T1, hGLP1R (Homo sapiens, UniProt P43220).
T1 construct: expressed in transfected cells; host or cells: HEK-293 cells carrying a CRE-luciferase reporter gene
Description: hGLP1R CreLuc reporter gene assay in 0.5% and 100% plasma. The format is cell-based. As to conditions: CreLuc reporter gene assay. The source says: (§1) Example 1: hGLPR/hGIPR/hNPY2R CreLuc Assay in 0.5% and 100% Plasma
(§2) CHO and HEK-293 recombinant cell lines express a luciferase reporter gene under control of the cAMP responsive element (CRE). As a second recombinant protein the GLP-1 and NPY2 receptors were expressed in the reporter gene HEK cells, and the GIP receptor was expressed in the reporter gene CHO cells, respectively. Stimulation of these recombinant cells with an agonist leads to an increase of intracellular cAMP levels. In the presence of cAMP, the transcription factor CRE binding protein (CREB) binds to the CRE and to the CREB binding protein (CBP), which leads to transcription of the luciferase reporter gene. Peptides upon serial-dilution in 100% DMSO were transferred into 384-well assay plates with 5 μl pre-dispensed assay buffer (1×HBSS, 20 mM HEPES, pH7.4 supplemented with 0.5% human plasma) using acoustic dispensing on a Labcyte ECHO. Cryo-preserved transgenic reporter gene cells were thawed in assay buffer. 20 μl (10.000 cells/well) were added to the plate with the peptides and incubated for 4 hours at 37° C. in a humidified incubator. Following incubation, assay plates are equilibrated to room temperature, followed by addition of 25 μl of Bright-GIo™ Luciferase reagent, incubation at room temperature for 10 minutes and analysis of luminescence (Envision Reader). Concentration response evaluation of compounds was performed with 8 concentrations of peptides (covering four decades). EC50 values were calculated by non-linear regression using sigmoid concentration-response with variable slope. The same assays were run in the presence of 100% plasma with no additional buffer constituents.
For orientation: Reporter assays use an easily measured gene product as a stand-in for the process of interest.

A further assay has as its target T2, hGIPR (Homo sapiens, UniProt P48546).
T2 construct: expressed in transfected cells; host or cells: CHO cells carrying a CRE-luciferase reporter gene
T2 sequence (P48546 22-466): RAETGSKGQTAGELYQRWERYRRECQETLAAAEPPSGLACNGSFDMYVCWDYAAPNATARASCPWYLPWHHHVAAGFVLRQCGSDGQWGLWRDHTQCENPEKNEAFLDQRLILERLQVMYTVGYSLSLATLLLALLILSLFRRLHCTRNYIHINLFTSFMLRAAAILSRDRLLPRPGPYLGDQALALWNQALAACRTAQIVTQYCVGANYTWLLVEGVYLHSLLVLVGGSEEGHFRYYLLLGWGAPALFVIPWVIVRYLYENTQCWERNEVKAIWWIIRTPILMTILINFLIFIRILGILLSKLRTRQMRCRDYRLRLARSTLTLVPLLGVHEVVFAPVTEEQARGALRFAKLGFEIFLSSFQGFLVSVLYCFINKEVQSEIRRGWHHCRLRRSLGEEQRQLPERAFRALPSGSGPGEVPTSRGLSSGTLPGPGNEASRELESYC
Description: hGIPR CreLuc reporter gene assay in 0.5% and 100% plasma. The format is cell-based. Conditions: CreLuc reporter gene assay.
Source text: as §1, §2

[1] abbreviates: 0.5% human plasma, read-out: hGLP1R 0.5% hP.
Where [2] appears, read: 100% human plasma, read-out: hGLP1R 100% hP.
The mark [3] stands for this setting: 0.5% human plasma, read-out: hGIPR 0.5% hP.
The mark [4] stands for this setting: 100% human plasma, read-out: hGIPR 100% hP.

T1 sequence (P43220 24-463): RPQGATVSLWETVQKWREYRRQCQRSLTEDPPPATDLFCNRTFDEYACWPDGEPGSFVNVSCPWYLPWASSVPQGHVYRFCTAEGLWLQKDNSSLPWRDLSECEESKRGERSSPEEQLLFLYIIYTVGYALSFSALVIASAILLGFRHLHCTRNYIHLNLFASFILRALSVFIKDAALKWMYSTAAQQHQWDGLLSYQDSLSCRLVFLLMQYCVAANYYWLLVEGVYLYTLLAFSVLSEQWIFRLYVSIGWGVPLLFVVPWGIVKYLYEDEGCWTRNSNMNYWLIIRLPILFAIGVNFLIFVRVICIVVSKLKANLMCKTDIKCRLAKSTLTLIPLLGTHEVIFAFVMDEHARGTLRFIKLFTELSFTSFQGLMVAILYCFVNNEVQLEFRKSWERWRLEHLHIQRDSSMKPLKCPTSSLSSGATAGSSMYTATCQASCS

Consider “H-Y[Aib]EGTFTSDYSI[Aib]LEKQAQ[Aib]AFVEWLIK([εLys-γGlu-γGlu-γGlu-γGlu-γGlu-γGlu-C20 diacid])GGPSSGAS[Aib]RHYYNWLTRQ[NMeR]Y-NH2 [Compound 39, Y-Aib-E-G-T-F-T-S-D-Y-S-I-Aib-L-E-K-Q-A-Q-Aib-A-F-V-E-W-L-I-K(1,3)-G-G-P-S-S-G-A-S-Aib-R-H-Y-Y-N-W-L-T-R-Q-NMeR-Y-NH2.C20DA-gGlu-gGlu-gGlu-gGlu-gGlu-gGlu-eLys(1,2)]”, for which the EC50 at hGLP1R (setting [1]) was found to be 0.09 nM; at hGLP1R (setting [2]), 0.82 nM; at hGIPR (setting [3]), 0.06 nM; at hGIPR (setting [4]), 0.4 nM.
As to “H-Y[Aib]EGTFTSDYSI[Aib]LEKQAQ[Aib]AFVQWLIK([Ahx-γGlu-γGlu-γGlu-γGlu-γGlu-C18 diacid])GGPEEGASLRHYYNWLTRQRY-NH2 [Compound 162, Y-Aib-E-G-T-F-T-S-D-Y-S-I-Aib-L-E-K-Q-A-Q-Aib-A-F-V-Q-W-L-I-K(1,3)-GGPEEGASLRHYYNWLTRQRY-NH2.C18DA-gGlu-gGlu-gGlu-gGlu-gGlu-AHX(1,2)]”, the EC50 came to 0.2 nM at hGLP1R (setting [1]), 0.25 nM on hGIPR (setting [3]) and 1.61 nM at hGIPR (setting [4]).
As to “H-Y[Aib]EGTFTSDYSI[Aib]LEKQAQ[Aib]AFVQWLIK([γGlu-γGlu-γGlu-γGlu-γGlu-C20 diacid])GGPESGASLRHYYNWLTRQRY-NH2 [Compound 29, Y-Aib-E-G-T-F-T-S-D-Y-S-I-Aib-L-E-K-Q-A-Q-Aib-A-F-V-Q-W-L-I-K(1,3)-GGPESGASLRHYYNWLTRQRY-NH2.C20DA-gGlu-gGlu-gGlu-gGlu-gGlu(1,2)]”, the values for the EC50 at hGLP1R (setting [1]), at hGLP1R (setting [2]) and on hGIPR (setting [3]) were 0.13 nM, 6.74 nM and 0.23 nM, respectively.
“Y[Aib]EGTFTSDYSI[Aib]LEKQAQ[Aib]AFVQWLIK([AEEA-AEEA-γGlu-γGlu-γGlu-C18 diacid])GGPSEGASLRHYYNWLTRQRY-NH2 [Compound 266, Y-Aib-E-G-T-F-T-S-D-Y-S-I-Aib-L-E-K-Q-A-Q-Aib-A-F-V-Q-W-L-I-K(1,3)-GGPSEGASLRHYYNWLTRQRY-NH2.C18DA-gGlu-gGlu-gGlu-OEG-OEG(1,2)]”: the EC50 was found to be 0.1 nM at hGLP1R (setting [1]), 2.21 nM at hGLP1R (setting [2]), 0.13 nM at hGIPR (setting [3]) and 0.65 nM at hGIPR (setting [4]).
Consider “H-Y[Aib]EGTFTSDYSI[Aib]LEKQAQ[Aib]AFVEWLIK([εLys-γGlu-γGlu-γGlu-γGlu-γGlu-γGlu-C20 diacid])GGPSSAVSLRHYYNWLTRQRY-NH2 [Compound 33, Y-Aib-E-G-T-F-T-S-D-Y-S-I-Aib-L-E-K-Q-A-Q-Aib-A-F-V-E-W-L-I-K(1,3)-GGPSSAVSLRHYYNWLTRQRY-NH2.C20DA-gGlu-gGlu-gGlu-gGlu-gGlu-gGlu-eLys(1,2)]”, for which the EC50 worked out at 0.14 nM at hGLP1R (setting [1]), 3.17 nM on hGLP1R (setting [2]) and 0.25 nM at hGIPR (setting [3]).
“I: H-Y[Aib]EGTFTSDYSI[Aib]LEKQAQ[Aib]AFVEWLIKGGPSEGASLRHYYNWLTRQRY-NH2 / II: {C18 diacid}-EEEEEE (amide I:28-II:C) [Compound 302, Y-Aib-E-G-T-F-T-S-D-Y-S-I-Aib-L-E-K-Q-A-Q-Aib-A-F-V-E-W-L-I-K(1,3)-GGPSEGASLRHYYNWLTRQRY-NH2.C18DA-E-E-E-E-E-E(1,2)]”: the EC50 at hGLP1R (setting [1]) amounted to 0.15 nM; at hGIPR (setting [3]), 0.33 nM.
With “H-Y[Aib]EGTFTSDYSI[Aib]LEKQAQ[Aib]AFVEYLIK([εLys-γGlu-γGlu-γGlu-γGlu-γGlu-γGlu-C20 diacid])GGPSSGASLRHYYNWLTRQRY-NH2 [Compound 135, Y-Aib-E-G-T-F-T-S-D-Y-S-I-Aib-L-E-K-Q-A-Q-Aib-A-F-V-E-Y-L-I-K(1,3)-GGPSSGASLRHYYNWLTRQRY-NH2.C20DA-gGlu-gGlu-gGlu-gGlu-gGlu-gGlu-eLys(1,2)]”, the EC50 at hGLP1R (setting [1]) worked out at 0.24 nM; at hGIPR (setting [3]) it was 0.11 nM; at hGIPR (setting [4]) it was 1.07 nM.
With “H-Y[Aib]EGTFTSDYSI[Aib]LEDQAQ[Aib]AFVEWLIK([εLys-γGlu-γGlu-γGlu-γGlu-γGlu-γGlu-C20 diacid])GGPSSGASLRHYYNWLTRQRY-NH2 [Compound 90, Y-Aib-E-G-T-F-T-S-D-Y-S-I-Aib-L-E-D-Q-A-Q-Aib-A-F-V-E-W-L-I-K(1,3)-GGPSSGASLRHYYNWLTRQRY-NH2.C20DA-gGlu-gGlu-gGlu-gGlu-gGlu-gGlu-eLys(1,2)]”, the EC50 at hGLP1R (setting [1]) worked out at 0.3 nM; on hGIPR (setting [3]), 1.03 nM.
For “I: H-Y[Aib]EGTFTSDYSI[Aib]LEKQAQ[Aib]AFVQWLIKGGPEEGASLRHYYNWLTRQRY-NH2 / II: {C18 diacid}-EEEEEE[εLys] (amide I:28-II:C) [Compound 196, Y-Aib-E-G-T-F-T-S-D-Y-S-I-Aib-L-E-K-Q-A-Q-Aib-A-F-V-Q-W-L-I-K(1,3)-GGPEEGASLRHYYNWLTRQRY-NH2.C18DA-E-E-E-E-E-E-eLys(1,2)]” the same measures were 0.2 nM and 0.25 nM.
Regarding “H-Y[Aib]EGTFTSDYSI[Aib]LEKQAE[Aib]AFVEWLIK([γGlu-γGlu-γGlu-γGlu-C20 diacid])GGPSEGASLRHYYNWLTRQRY-NH2 [Compound 280, Y-Aib-E-G-T-F-T-S-D-Y-S-I-Aib-L-E-K-Q-A-E-Aib-A-F-V-E-W-L-I-K(1,3)-GGPSEGASLRHYYNWLTRQRY-NH2.C20DA-gGlu-gGlu-gGlu-gGlu(1,2)]”, the results for the EC50 at hGLP1R (setting [1]) and at hGIPR (setting [3]) were 0.44 nM and 0.38 nM, respectively.
As to “H-Y[Aib]EGTFTSDYSI[Aib]LEKQAQ[Aib]AFVEWLIK([γGlu-γGlu-γGlu-γGlu-γGlu-γGlu-C20 diacid])GGPSSGASLRHYYNWLTRQRY-NH2 [Compound 235, Y-Aib-E-G-T-F-T-S-D-Y-S-I-Aib-L-E-K-Q-A-Q-Aib-A-F-V-E-W-L-I-K(1,3)-GGPSSGASLRHYYNWLTRQRY-NH2.C20DA-gGlu-gGlu-gGlu-gGlu-gGlu-gGlu(1,2)]”, the EC50 on hGLP1R (setting [1]) is 0.12 nM; at hGIPR (setting [3]), 0.34 nM; at hGIPR (setting [4]) it was 2.81 nM.
For the substance “H-Y[Aib]EGTFTSDYSI[Aib]LEKQAQ[Aib]AFVEWLIK([εLys-γGlu-γGlu-γGlu-γGlu-γGlu-γGlu-C20 diacid])GGPSSGAS[Aib]RHYYNWLTRQRY-NH2 [Compound 118, Y-Aib-E-G-T-F-T-S-D-Y-S-I-Aib-L-E-K-Q-A-Q-Aib-A-F-V-E-W-L-I-K(1,3)-G-G-P-S-S-G-A-S-Aib-R-H-Y-Y-N-W-L-T-R-Q-R-Y-NH2.C20DA-gGlu-gGlu-gGlu-gGlu-gGlu-gGlu-eLys(1,2)]”, the EC50 at hGLP1R (setting [1]) amounted to 0.05 nM; at hGIPR (setting [3]), 0.06 nM; on hGIPR (setting [4]) it was 0.55 nM.
On to “H-Y[Aib]EGTFTSDYSI[Aib]LEKQAQ[Aib]AFVQWLIK([εLys-γGlu-γGlu-γGlu-γGlu-γGlu-γGlu-C20 diacid])GGPSEGASLRHYYNWLTR[NMeQ]RY-NH2 [Compound 115, Y-Aib-E-G-T-F-T-S-D-Y-S-I-Aib-L-E-K-Q-A-Q-Aib-A-F-V-Q-W-L-I-K(1,3)-G-G-P-S-E-G-A-S-L-R-H-Y-Y-N-W-L-T-R-NMeQ-R-Y-NH2.C20DA-gGlu-gGlu-gGlu-gGlu-gGlu-gGlu-eLys(1,2)]”, for which the EC50 on hGLP1R (setting [1]) stood at 0.12 nM; on hGIPR (setting [3]) it was 0.51 nM.
On to “H-Y[Aib]EGTFTSDYSI[Aib]LEKQAQ[Aib]AFVQWLIK([AEEA-AEEA-γGlu-γGlu-γGlu-γGlu-γGlu-C20 diacid])GGPSEGASLRHYYNWLTRQRY-NH2 [Compound 228, Y-Aib-E-G-T-F-T-S-D-Y-S-I-Aib-L-E-K-Q-A-Q-Aib-A-F-V-Q-W-L-I-K(1,3)-GGPSEGASLRHYYNWLTRQRY-NH2.C20DA-gGlu-gGlu-gGlu-gGlu-gGlu-OEG-OEG(1,2)]”, for which the results for the EC50 on hGLP1R (setting [1]), at hGIPR (setting [3]) and on hGIPR (setting [4]) were 0.12 nM, 0.23 nM and 1.52 nM, respectively.
